Experiments:
Assay type in all cases: cell-based
[1] = test system: human hair follicles; assay: Hair cycle staging of cultured hair follicles (assays #1, #2, #3)
Procedure: (§1) Photodocuments from the Fontana Masson staining were used for hair follicle staging according to previously well-defined morphological criteria (Stenn K S et al, Controls of Hair Follicle Cycling; Physiol Rev 2001, 81:449-494, Müller-Röver S et al, A Comprehensive Guide for the Accurate Classification of Murine Hair Follicles in Distinct Hair Cycle Stages; J Invest Dermatol 2001, 117:3-15). The percentage of hair follicles in anagen, early, mid and late catagen was determined.
as §1, with “determined in the different assays.” for “determined.”

[2] = test system: human anagen VI hair follicles; assay: Melanogenesis, Fontana Masson staining measured by Image J, assay #1; settings: for Mean relative darkening of the groups (measured by image J), Mean: 9 days, dark=small index number, light=high index number
Procedure: (§2) Assay #1 Culture HF429: Hair follicles were grown in the wells of a microtiter plate (3 follicles per well) and treated for 9 days with culture medium and test substance as indicated in FIG. 1. Thereafter, elongation, melanogenesis and hair cycle stage were determined.
Fontana Masson staining was performed at the end of the culture period and photos taken of snap frozen sections. The photos were analysed (Image J, public domain, developed at the National Institutes of Health, USA) by measuring the density of two squares, consisting of 150×150 dots, placed over the darkest areas on both sides of the dermal papilla. For Fontana-Masson staining, fixed sections were treated in darkness for 40 minutes with a solution containing 10% silver nitrate (Merck & Co., Inc., Whitehouse Station, N.J., USA; CatNo 1.01512.0100), following by a development in solution containing 5% sodium thiosulphate (Merck & Co., Inc.; CatNo 1.06512.2500) for 1 minute and multiple washings in distilled water for 3 minutes. Counterstaining with 0.5% Neutralrot (Chroma Muenster, Germany, CatNo 2E038). Then dehydration in xylol and covering with Eukitt (O. Kindler GmbH, Freiburg, Germany; CatNo E115).
(§3) All data were analysed by two-tailed unpaired t-test (SPSS analysis software SPSS Inc., Chicago, USA). For determination of elongation, two outliers at top and bottom end of value range were eliminated; with the measurement of melanogenesis one outlier at both, top and bottom range, was eliminated. Results are given as mean value and standard error of measurement (SEM).
Micro-dissected anagen VI hair follicles were treated as above described. At the end of the culture period Fontana Masson staining was performed and photos were taken of the snap frozen sections. The pictures were analysed by measuring the darkness (brightness) of two squares, consisting of 150×150 dots, placed over the darkest areas on both sides of the dermal papilla (dark=small index number, light=high index number). The shading of the different groups was compared to each other and the results were analysed using Student's t-test. The results are shown below in Table 5 and FIG. 7.

[3] = test system: human anagen VI hair follicles; assay: Hair shaft elongation of organ-cultured hair follicles, assay #2 (culture HF 441)
Procedure: (§4) Human anagen VI hair follicles were isolated from scalp skin obtained from three different individuals undergoing routine face-lift surgery. All experiments were performed according to Helsinki guidelines.
(§5) Hair follicles were isolated as described (Philpott MP et al, Human hair growth in vitro; J Cell Science 1990, 97(Pt 3):463-71). Isolated HFs were maintained in supplemented, serum-free Williams E medium (Biochrom, Cambridge, UK) supplemented with 2 mMol/L L-glutamine (Invitrogen, Paisley, UK), 10 ng/mL hydrocortisone (Sigma-Aldrich, Taufkirchen, Germany), 10 μg/mL insulin (Sigma-Aldrich), and 1% antibiotic/antimycotic mixture (Gibco, Karlsruhe, Germany). Hair follicles were placed in a 24-well plate with 500 μL medium (day 0) and incubated in a CO2-incubator (5% CO2, 37° C.) over night without any treatment. The next day (day 1) medium was exchanged and test substance was added to each well (5 μL of stock solution was added to 495 μL culture medium). The medium or medium with test substance was changed every 48 hours.
(§6) Hair shaft length measurements were performed every second day on individual hair follicles using a binocular microscope with an eyepiece measuring reticule. The length of the follicle was defined as the distance between the base of the bulb and the cut end of the hair fibre (Philpott MP et al, Human hair growth in vitro; J Cell Science 1990, 97(Pt 3):463-71).
as §3

[4] = test system: human anagen VI hair follicles; assay: Hair shaft elongation of organ-cultured hair follicles, assay #1 (culture HF 429); settings: for Hair growth compared with control (in words): p<0.05
Procedure: as §4, §5, §2, §6, §3

Thymosin beta-4 [TB4]
Proportion in catagen compared to control (in words) ([1]; 100 ng, Assay #1 and #3): higher proportion of cells in catagen compared to control
Proportion in the stage of anagen compared with controls (in words) ([1]; 1000 ng/mL, after nine days): consistently more cells in the stage of anagen
Mean relative darkening of the groups (measured by image J), Mean ([2]; 100 ng/mL): 101.04
Mean relative darkening of the groups (measured by image J), Mean ([2]; 1000 ng/mL): 85.52
Influence on HF melanogenesis (in words) ([2]; quantitative Masson-Fontana histochemistry): did not influence HF melanogenesis
Mean elongation in % compared to day 0 ([3]; 100 ng/mL, Day 3): 19.35%
Mean elongation in % compared to day 0 ([3]; 100 ng/mL, Day 5): 31.66%
Mean elongation in % compared to day 0 ([3]; 100 ng/mL, Day 7): 41.77%
Mean elongation in % compared to day 0 ([3]; 100 ng/mL, Day 9): 49.94%
Mean elongation in % compared to day 0 ([3]; 100 ng/mL, Day O): 0%
Mean elongation in % compared to day 0 ([3]; 1000 ng/mL, Day 3): 21.68%
Mean elongation in % compared to day 0 ([3]; 1000 ng/mL, Day 5): 32.59%
Mean elongation in % compared to day 0 ([3]; 1000 ng/mL, Day 7): 37.48%
Mean elongation in % compared to day 0 ([3]; 1000 ng/mL, Day 9): 43.30%
Mean elongation in % compared to day 0 ([3]; 1000 ng/mL, Day O): 0%
Mean elongation in % compared to day 1 ([4]; 100 ng/mL, Day 0): 0.00%
Mean elongation in % compared to day 1 ([4]; 100 ng/mL, Day 1): 12.26%
Mean elongation in % compared to day 1 ([4]; 100 ng/mL, Day 3): 35.49%
Mean elongation in % compared to day 1 ([4]; 100 ng/mL, Day 5): 49.79%
Mean elongation in % compared to day 1 ([4]; 100 ng/mL, Day 7): 61.36%
Mean elongation in % compared to day 1 ([4]; 100 ng/mL, Day 9): 74.11%
Hair growth compared with control (in words) ([4]; 100 ng/mL): significant lack of hair growth
Mean elongation in % compared to day 1 ([4]; 1000 ng/mL, Day 0): 0.00%
Mean elongation in % compared to day 1 ([4]; 1000 ng/mL, Day 1): 14.20%
Mean elongation in % compared to day 1 ([4]; 1000 ng/mL, Day 3): 39.31%
Mean elongation in % compared to day 1 ([4]; 1000 ng/mL, Day 5): 66.20%
Mean elongation in % compared to day 1 ([4]; 1000 ng/mL, Day 7): 90.23%
Mean elongation in % compared to day 1 ([4]; 1000 ng/mL, Day 9): 103.17%

thymulin
Proportion of HFs in anagen compared with control groups (in words) ([1]; 10 pg and 100 pg/mL, three assays, 9-day treatment): consistently a higher proportion of HFs in anagen than control groups
Fontana Masson staining (melanin) compared with control group (in words) ([2]; 10 pg/mL): significantly more staining
Mean relative darkening of the groups (measured by image J), Mean ([2]; 10 pg/mL): 75.73
Mean relative darkening of the groups (measured by image J), Mean ([2]; 100 pg/mL): 90.48
Mean elongation in % compared to day 0 ([3]; 10 pg/mL, Day 3): 20.86%
Mean elongation in % compared to day 0 ([3]; 10 pg/mL, Day 5): 34.97%
Mean elongation in % compared to day 0 ([3]; 10 pg/mL, Day 7): 43.26%
Mean elongation in % compared to day 0 ([3]; 10 pg/mL, Day 9): 58.90%
Mean elongation in % compared to day 0 ([3]; 10 pg/mL, Day O): 0%
Mean elongation with thymulin in percent compared to day 0 ([4]; 10 pg/mL, Day 0): 0%
Mean elongation with thymulin in percent compared to day 0 ([4]; 10 pg/mL, Day 1): 13.19%
Mean elongation with thymulin in percent compared to day 0 ([4]; 10 pg/mL, Day 3): 37.58%
Mean elongation with thymulin in percent compared to day 0 ([4]; 10 pg/mL, Day 5): 64.05%
Mean elongation with thymulin in percent compared to day 0 ([4]; 10 pg/mL, Day 7): 75.10%
Mean elongation with thymulin in percent compared to day 0 ([4]; 10 pg/mL, Day 9): 90.98%
Mean elongation with thymulin in percent compared to day 0 ([4]; 100 pg/mL, Day 0): 0%
Mean elongation with thymulin in percent compared to day 0 ([4]; 100 pg/mL, Day 1): 11.33%
Mean elongation with thymulin in percent compared to day 0 ([4]; 100 pg/mL, Day 3): 31.50%
Mean elongation with thymulin in percent compared to day 0 ([4]; 100 pg/mL, Day 5): 53.75%
Mean elongation with thymulin in percent compared to day 0 ([4]; 100 pg/mL, Day 7): 68.76%
Mean elongation with thymulin in percent compared to day 0 ([4]; 100 pg/mL, Day 9): 83.13%
Hair growth compared with control (in words) ([4]; 100 pg/mL): significant lack of hair growth
